In assay [1] the test system is breast line MDA468. As to the kind of experiment: In vitro cell culture growth assay (MTS), MDA468. Type of assay: cell-based, human. The note with it: Homo sapiens, 72 h, MDA468 cells, three days after drug treatment. In short, it runs like this:
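Three-day drug treatment starting 1 day post-plating; viable cells quantified via MTS metabolism (A490); effect normalised to in-plate vehicle controls as % growth.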

Assay [2] relates to prostate line LNCap. Put plainly: In vitro cell culture growth assay (MTS), LNCap.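 Further: viable cell density read by absorbance at 490 nm, growth expressed as percent of vehicle-treated cells on the same plate.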 It counts as cell-based, human. The settings on record: Homo sapiens, LNCaP, 72 h, LNCap cells, three days after drug treatment.
In assay [3] the target is PI3K (Homo sapiens, UniProt P42336). As to the kind of experiment: Fluorescence polarization assay for PI3K.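 Further: PI3K kinase reaction on PIP2 with ATP, 30-60 min, product sensed by GST-GRP with red probe in fluorescence polarization (mP), controls without enzyme and at zero time.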 Type of assay: biochemical. The settings on record: PI3Kα; read-out: PI3Kα IC50.
Sequence of PI3K (P42336 whole entry): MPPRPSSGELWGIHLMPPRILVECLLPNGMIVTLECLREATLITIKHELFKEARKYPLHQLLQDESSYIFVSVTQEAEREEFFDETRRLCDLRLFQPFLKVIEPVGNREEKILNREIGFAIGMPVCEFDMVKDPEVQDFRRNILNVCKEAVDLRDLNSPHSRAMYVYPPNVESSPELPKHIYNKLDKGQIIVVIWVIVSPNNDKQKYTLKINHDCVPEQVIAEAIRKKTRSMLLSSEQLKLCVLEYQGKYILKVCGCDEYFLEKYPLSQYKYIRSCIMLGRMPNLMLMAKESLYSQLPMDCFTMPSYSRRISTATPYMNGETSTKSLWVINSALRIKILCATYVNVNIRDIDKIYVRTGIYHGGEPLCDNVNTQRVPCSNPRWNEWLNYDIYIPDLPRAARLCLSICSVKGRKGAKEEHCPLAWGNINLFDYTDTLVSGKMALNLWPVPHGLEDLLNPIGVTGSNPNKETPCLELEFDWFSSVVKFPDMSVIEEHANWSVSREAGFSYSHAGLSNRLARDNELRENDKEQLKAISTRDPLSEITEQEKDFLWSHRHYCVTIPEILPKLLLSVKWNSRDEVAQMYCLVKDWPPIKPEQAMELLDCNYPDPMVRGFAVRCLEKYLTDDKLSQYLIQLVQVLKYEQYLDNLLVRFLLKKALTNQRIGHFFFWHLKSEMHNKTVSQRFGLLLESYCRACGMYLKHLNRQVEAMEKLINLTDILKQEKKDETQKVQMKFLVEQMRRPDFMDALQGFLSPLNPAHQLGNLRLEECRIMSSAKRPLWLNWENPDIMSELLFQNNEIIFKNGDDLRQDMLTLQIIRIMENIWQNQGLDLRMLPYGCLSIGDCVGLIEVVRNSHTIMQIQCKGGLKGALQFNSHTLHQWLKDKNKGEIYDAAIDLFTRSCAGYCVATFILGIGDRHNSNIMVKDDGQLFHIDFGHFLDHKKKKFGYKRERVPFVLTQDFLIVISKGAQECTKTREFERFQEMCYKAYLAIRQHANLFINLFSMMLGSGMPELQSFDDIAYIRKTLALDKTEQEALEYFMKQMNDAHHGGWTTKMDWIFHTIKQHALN
Sequence of PI3K (P27986 whole entry partner): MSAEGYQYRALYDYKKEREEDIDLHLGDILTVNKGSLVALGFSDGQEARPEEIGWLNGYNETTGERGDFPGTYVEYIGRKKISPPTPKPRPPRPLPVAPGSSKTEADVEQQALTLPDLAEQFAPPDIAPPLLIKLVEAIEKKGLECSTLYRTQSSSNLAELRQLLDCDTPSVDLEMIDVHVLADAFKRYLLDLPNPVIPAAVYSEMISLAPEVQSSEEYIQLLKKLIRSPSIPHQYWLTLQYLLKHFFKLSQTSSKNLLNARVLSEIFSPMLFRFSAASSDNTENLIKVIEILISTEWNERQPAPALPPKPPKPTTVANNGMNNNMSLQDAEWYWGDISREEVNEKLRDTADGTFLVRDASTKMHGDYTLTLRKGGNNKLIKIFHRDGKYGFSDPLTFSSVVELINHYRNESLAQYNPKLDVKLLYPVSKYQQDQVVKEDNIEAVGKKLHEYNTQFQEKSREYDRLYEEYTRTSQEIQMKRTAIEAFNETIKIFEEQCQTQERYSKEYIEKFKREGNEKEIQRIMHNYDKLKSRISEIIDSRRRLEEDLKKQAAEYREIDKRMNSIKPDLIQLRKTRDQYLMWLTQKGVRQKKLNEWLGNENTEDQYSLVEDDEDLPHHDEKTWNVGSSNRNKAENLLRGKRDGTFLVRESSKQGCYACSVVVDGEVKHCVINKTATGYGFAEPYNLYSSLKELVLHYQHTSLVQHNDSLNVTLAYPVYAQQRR

Among the data in patent publication US20080234262A1 (Wyeth, priority 2007, published 2008) are IC50 values, retold here.

As to `COC(=O)Nc1ccc(-c2nc(N3CCOCC3)c3cnn(C4CCN(C(=O)OC(C)C)CC4)c3n2)cc1` [Compound 806, isopropyl 4-(6-{4-[(methoxycarbonyl)amino]phenyl}-4-morpholin-4-yl-1H-pyrazolo[3,4-d]pyrimidin-1-yl)piperidine-1-carboxylate], the values for the IC50 in assay [1], in assay [2] and in assay [3] were 900 nM, 700 nM and 4550 nM, respectively.
The like results for `CCSC(=O)N1CCC(n2ncc3c(N4CCOCC4)nc(-c4ccc(NC(=O)OC)cc4)nc32)CC1` [Compound 807, S-ethyl 4-(6-{4-[(methoxycarbonyl)amino]phenyl}-4-morpholin-4-yl-1H-pyrazolo[3,4-d]pyrimidin-1-yl)piperidine-1-carbothioate] were, in that order, 8000 nM, 1400 nM and 4450 nM.
Regarding `COC(=O)Nc1ccc(-c2nc(N3CCOCC3)c3cnn(C4CCN(C(=O)N(C)C)CC4)c3n2)cc1` [Compound 808, methyl (4-{1-[1-(dimethylcarbamoyl)piperidin-4-yl]-4-morpholin-4-yl-1H-pyrazolo[3,4-d]pyrimidin-6-yl}phenyl)carbamate], the IC50 amounted to 690 nM in assay [1], 430 nM in assay [2] and 2620 nM in assay [3].
In the same order, the values of `COC(=O)Nc1ccc(-c2nc(N3CCOCC3)c3cnn(C4CCN(C(C)=O)CC4)c3n2)cc1` [Compound 809, methyl {4-[1-(1-acetylpiperidin-4-yl)-4-morpholin-4-yl-1H-pyrazolo[3,4-d]pyrimidin-6-yl]phenyl}carbamate] are 4500 nM, 2300 nM and 2100 nM.
For `COC(=O)Nc1ccc(-c2nc(N3CCOCC3)c3cnn(C4CCN(C(=O)C(C)C)CC4)c3n2)cc1` [Compound 810, methyl {4-[1-(1-isobutyrylpiperidin-4-yl)-4-morpholin-4-yl-1H-pyrazolo[3,4-d]pyrimidin-6-yl]phenyl}carbamate], the results for the IC50 in assay [1], in assay [2] and in assay [3] were 3000 nM, 1300 nM and 2230 nM, respectively.
In the same order, the values of `COC(=O)Nc1ccc(-c2nc(N3CCOCC3)c3cnn(C4CCN(C(=O)C(F)(F)F)CC4)c3n2)cc1` [Compound 811, methyl (4-{4-morpholin-4-yl-1-[1-(trifluoroacetyl)piperidin-4-yl]-1H-pyrazolo[3,4-d]pyrimidin-6-yl}phenyl)carbamate] are 4600 nM, 1900 nM and 1350 nM.
Consider `CCNC(=S)N1CCC(n2ncc3c(N4CCOCC4)nc(-c4ccc(NC(=O)OC)cc4)nc32)CC1` [Compound 812, methyl [4-(1-{1-[(ethylamino)carbonothioyl]piperidin-4-yl}-4-morpholin-4-yl-1H-pyrazolo[3,4-d]pyrimidin-6-yl)phenyl]carbamate], for which the values for the IC50 in assay [1], in assay [2] and in assay [3] were 3000 nM, 2400 nM and 688 nM, respectively.
The like results for `CNC(=O)N1CCC(n2ncc3c(N4CCOCC4)nc(-c4ccc(NC(=O)OC)cc4)nc32)CC1` [Compound 813, methyl (4-{1-[1-(methylcarbamoyl)piperidin-4-yl]-4-morpholin-4-yl-1H-pyrazolo[3,4-d]pyrimidin-6-yl}phenyl)carbamate] were, in that order, 4400 nM, 2250 nM and 1960 nM.
Turning to `CCOC(=O)N1CCC(n2ncc3c(N4CCOCC4)nc(-c4ccc(NC(=O)Nc5ccccc5)cc4)nc32)CC1` [Compound 814, ethyl 4-(6-{4-[(anilinocarbonyl)amino]phenyl}-4-morpholin-4-yl-1H-pyrazolo[3,4-d]pyrimidin-1-yl)piperidine-1-carboxylate], the IC50 in assay [1] was under 27 nM; in assay [2] it was under 27 nM; in assay [3] it was 34 nM.
As to `CCOC(=O)N1CCC(n2ncc3c(N4CCOCC4)nc(-c4ccc(NC(=O)Nc5ccccn5)cc4)nc32)CC1` [Compound 815, ethyl 4-(4-morpholin-4-yl-6-{4-[(pyridin-2-ylcarbamoyl)amino]phenyl}-1H-pyrazolo[3,4-d]pyrimidin-1-yl)piperidine-1-carboxylate], the IC50 in assay [1] stood at 5000 nM; in assay [2] it was 1500 nM; in assay [3] it was 3810 nM.
As for `CCOC(=O)N1CCC(n2ncc3c(N4CCOCC4)nc(-c4ccc(NC(=O)Nc5cccnc5)cc4)nc32)CC1` [Compound 816, ethyl 4-(4-morpholin-4-yl-6-{4-[(pyridin-3-ylcarbamoyl)amino]phenyl}-1H-pyrazolo[3,4-d]pyrimidin-1-yl)piperidine-1-carboxylate], the IC50 was under 27 nM in assay [1], under 27 nM in assay [2] and 60 nM in assay [3].
For the compound `CCOC(=O)N1CCC(n2ncc3c(N4CCOCC4)nc(-c4ccc(NC(=O)Nc5ccncc5)cc4)nc32)CC1` [Compound 817, ethyl 4-(4-morpholin-4-yl-6-{4-[(pyridin-4-ylcarbamoyl)amino]phenyl}-1H-pyrazolo[3,4-d]pyrimidin-1-yl)piperidine-1-carboxylate], the IC50 in assay [1] is under 27 nM; in assay [2], under 27 nM; in assay [3] it was 40 nM.
For `CCOC(=O)N1CCC(n2ncc3c(N4CCOCC4)nc(-c4ccc(NC(=O)NCCO)cc4)nc32)CC1` [Compound 818, ethyl 4-[6-(4-{[(2-hydroxyethyl)carbamoyl]amino}phenyl)-4-morpholin-4-yl-1H-pyrazolo[3,4-d]pyrimidin-1-yl]piperidine-1-carboxylate], the IC50 came to 250 nM in assay [1], 320 nM in assay [2] and 445 nM in assay [3].
In the same order, the values of `CCOC(=O)N1CCC(n2ncc3c(N4CCOCC4)nc(-c4ccc(NC(=O)NCCF)cc4)nc32)CC1` [Compound 819, ethyl 4-[6-(4-{[(2-fluoroethyl)carbamoyl]amino}phenyl)-4-morpholin-4-yl-1H-pyrazolo[3,4-d]pyrimidin-1-yl]piperidine-1-carboxylate] are 70 nM, under 27 nM and 794 nM.
The like results for `CCNC(=O)Nc1ccc(-c2nc(N3CCOCC3)c3cnn(C4CCN(C(=O)OCC)CC4)c3n2)cc1` [Compound 820, ethyl 4-(6-{4-[(ethylcarbamoyl)amino]phenyl}-4-morpholin-4-yl-1H-pyrazolo[3,4-d]pyrimidin-1-yl)piperidine-1-carboxylate] were, in that order, 130 nM, under 27 nM and 704 nM.
As to `CCOC(=O)N1CCC(n2ncc3c(N4CCOCC4)nc(-c4ccc(NC(=O)NC5CC5)cc4)nc32)CC1` [Compound 821, ethyl 4-(6-{4-[(cyclopropylcarbamoyl)amino]phenyl}-4-morpholin-4-yl-1H-pyrazolo[3,4-d]pyrimidin-1-yl)piperidine-1-carboxylate], the IC50 is 140 nM in assay [1], under 27 nM in assay [2] and 1120 nM in assay [3].
Take `CCNC(=O)Nc1ccc(-c2nc(N3CCOCC3)c3cnn(C4CCN(C(=O)C(C)C)CC4)c3n2)cc1` [Compound 822, 1-ethyl-3-{4-[1-(1-isobutyrylpiperidin-4-yl)-4-morpholin-4-yl-1H-pyrazolo[3,4-d]pyrimidin-6-yl]phenyl}urea]: the IC50 in assay [1] turned out to be 500 nM; in assay [2], 120 nM; in assay [3], 1230 nM.
`CC(C)C(=O)N1CCC(n2ncc3c(N4CCOCC4)nc(-c4ccc(NC(=O)NCCO)cc4)nc32)CC1` [Compound 823, 1-(2-hydroxyethyl)-3-{4-[1-(1-isobutyrylpiperidin-4-yl)-4-morpholin-4-yl-1H-pyrazolo[3,4-d]pyrimidin-6-yl]phenyl}urea]: the IC50 in assay [1] was found to be 320 nM; in assay [2] it was 3500 nM; in assay [3], 571 nM.
Regarding `CC(C)C(=O)N1CCC(n2ncc3c(N4CCOCC4)nc(-c4ccc(NC(=O)NC5CC5)cc4)nc32)CC1` [Compound 824, 1-cyclopropyl-3-{4-[1-(1-isobutyrylpiperidin-4-yl)-4-morpholin-4-yl-1H-pyrazolo[3,4-d]pyrimidin-6-yl]phenyl}urea], the IC50 in assay [1] stood at 700 nM; in assay [2], 110 nM; in assay [3], 2030 nM.
The like results for `CC(C)C(=O)N1CCC(n2ncc3c(N4CCOCC4)nc(-c4ccc(NC(=O)NCCF)cc4)nc32)CC1` [Compound 825, 1-(2-fluoroethyl)-3-{4-[1-(1-isobutyrylpiperidin-4-yl)-4-morpholin-4-yl-1H-pyrazolo[3,4-d]pyrimidin-6-yl]phenyl}urea] were, in that order, 620 nM, 150 nM and 1670 nM.
The like results for `CC(C)C(=O)N1CCC(n2ncc3c(N4CCOCC4)nc(-c4ccc(NC(=O)Nc5ccccc5)cc4)nc32)CC1` [Compound 826, 1-{4-[1-(1-isobutyrylpiperidin-4-yl)-4-morpholin-4-yl-1H-pyrazolo[3,4-d]pyrimidin-6-yl]phenyl}-3-phenylurea] were, in that order, 110 nM, 30 nM and 29 nM.
In the same order, the values of `CC(C)C(=O)N1CCC(n2ncc3c(N4CCOCC4)nc(-c4ccc(NC(=O)Nc5ccccn5)cc4)nc32)CC1` [Compound 827, 1-{4-[1-(1-isobutyrylpiperidin-4-yl)-4-morpholin-4-yl-1H-pyrazolo[3,4-d]pyrimidin-6-yl]phenyl}-3-pyridin-2-ylurea] are 16000 nM, 600 nM and 2260 nM.
On to `CC(C)C(=O)N1CCC(n2ncc3c(N4CCOCC4)nc(-c4ccc(NC(=O)Nc5cccnc5)cc4)nc32)CC1` [Compound 828, 1-{4-[1-(1-isobutyrylpiperidin-4-yl)-4-morpholin-4-yl-1H-pyrazolo[3,4-d]pyrimidin-6-yl]phenyl}-3-pyridin-3-ylurea], for which the IC50 in assay [1] is 330 nM; in assay [2], 120 nM; in assay [3] it was 50 nM.
